37 compounds from patent publication US8877707B2, “Inhibitors of HCV NS5A” (Presidio Pharmaceuticals, Inc., priority 2010, dated 2014) can be followed below.

The subject of this test is HCV genotype 1b replicon in Huh 7 cells. Kind of test: HCV replicon assay (1b_Huh-Luc/Neo-ET cell line, luciferase readout). In kind it is cell-based. Conditions: Hepatitis C virus; Table 1; genotype 1b replicon, Huh 7 cells, 72 h, luciferase; read-out: Inhibition of HCV genotype 1b. How it is done: Biological activity of the compounds of the invention was determined using an HCV replicon assay. The 1b_Huh-Luc/Neo-ET cell line persistently expressing a bicistronic genotype 1b replicon in Huh 7 cells was obtained from ReBLikon GMBH. This cell line was used to test compound inhibition using luciferase enzyme activity readout as a measurement of compound inhibition of replicon levels.
On Day 1 (the day after plating), each compound is added in triplicate to the cells. Plates incubated for 72 h prior to running the luciferase assay. Enzyme activity was measured using a Bright-Glo Kit (cat. number E2620) manufactured by Promega Corporation. The following equation was used to generate a percent control value for each compound. % Control=(Average Compound Value/Average Control)*100
The EC50 value was determined using GraphPad Prism and the following equation: Y=Bottom+(Top−Bottom)/(1+10^((Log IC50−X)*HillSlope))
EC50 values of compounds are repeated several times in the replicon assay.
Regarding `COC(=O)N[C@H](C(=O)N1CCC[C@H]1c1ncc(-c2ccc(-c3ccc4cc(-c5c[nH]c([C@@H]6CCCN6C(=O)[C@H](NC(=O)OC)c6ccccc6)n5)cnc4c3)cc2)[nH]1)C(C)C` [compound 45], the EC50 was less than 1 nM.
Under `COC(=O)N[C@H](C(=O)N1CCC[C@H]1c1nc(-c2ccc3cc(-c4ccc(-c5cnc([C@@H]6CCCN6C(=O)[C@@H](NC(=O)OC)C6CCOCC6)[nH]5)cc4)ccc3c2)c[nH]1)C(C)C` [compound 46] stands less than 1 nM; under `COC(=O)N[C@H](C(=O)N1CCC[C@H]1c1ncc(-c2ccc(-c3ccc4cc(-c5c[nH]c([C@@H]6CCCN6C(=O)[C@@H](NC(=O)OC)C6CCOCC6)n5)ccc4c3)cc2)[nH]1)C(C)C` [compound 47], less than 1 nM; under `COC(=O)N[C@H](C(=O)N1CCC[C@H]1c1ncc(-c2ccc(-c3ccc4cc(-c5c[nH]c([C@@H]6CCCN6C(=O)[C@H](NC(=O)OC)c6ccccc6)n5)ccc4c3)nc2)[nH]1)C(C)C` [compound 48], less than 1 nM.
With `COC(=O)N[C@H](C(=O)N1CCC[C@H]1c1nc(-c2cnc3cc(-c4ccc(-c5cnc([C@@H]6CCCN6C(=O)[C@@H](NC(=O)OC)C6CCOCC6)[nH]5)cc4)ccc3c2)c[nH]1)C(C)C` [compound 49], the EC50 is less than 1 nM.
Under `COC(=O)N[C@H](C(=O)N1CCC[C@H]1c1ncc(-c2ccc(-c3ccc4cc(-c5c[nH]c([C@@H]6CCCN6C(=O)[C@@H](NC(=O)OC)C6CCOCC6)n5)cnc4c3)cc2)[nH]1)C(C)C` [compound 50] stands less than 1 nM; under `COC(=O)N[C@H](C(=O)N1CCC[C@H]1c1nc(-c2ccc3cc(-c4ccc(-c5cnc([C@@H]6CCCN6C(=O)[C@@H](NC(=O)OC)C6CCOCC6)[nH]5)cn4)ccc3c2)c[nH]1)C(C)C` [compound 51], less than 1 nM; under `COC(=O)N[C@H](C(=O)N1CCC[C@H]1c1ncc(-c2ccc(-c3ccc4cc(-c5c[nH]c([C@@H]6CCCN6C(=O)[C@@H](NC(=O)OC)C6CCOCC6)n5)ccc4c3)nc2)[nH]1)C(C)C` [compound 52], less than 1 nM.
The figure for `COC(=O)N[C@H](C(=O)N1CCC[C@H]1c1nc(-c2ccc3nc(-c4ccc(-c5cnc([C@@H]6CCCN6C(=O)[C@@H](NC(=O)OC)C(C)C)[nH]5)nc4)ccc3c2)c[nH]1)C(C)C` [compound 53] is less than 1 nM; for `COC(=O)N[C@@H](C(=O)N1CCC[C@H]1c1nc(-c2ccc3nc(-c4ccc(-c5cnc([C@@H]6CCCN6C(=O)[C@H](NC(=O)OC)c6ccccc6)[nH]5)nc4)ccc3c2)c[nH]1)c1ccccc1` [compound 54] it is less than 1 nM.
Turning to `COC(=O)N[C@H](C(=O)N1CCC[C@H]1c1nc(-c2ccc3cc(-c4ccc(-c5cnc([C@@H]6CCCN6C(=O)[C@H](NC(=O)OC)c6ccccc6)[nH]5)cn4)ccc3c2)c[nH]1)C(C)C` [compound 56], the EC50 is less than 1 nM.
Take `COC(=O)N[C@H](C(=O)N1CCC[C@H]1c1nc(-c2cnc3cc(-c4ccc(-c5cnc([C@@H]6CCCN6C(=O)[C@@H](NC(=O)OC)C(C)C)[nH]5)cc4F)ccc3c2)c[nH]1)C(C)C` [compound 57]: the EC50 is less than 1 nM.
Under `COC(=O)N[C@H](C(=O)N1CCC[C@H]1c1ncc(-c2ccc(-c3ccc4cc(-c5c[nH]c([C@@H]6CCCN6C(=O)[C@H](NC(=O)OC)c6ccccc6)n5)cnc4c3)c(F)c2)[nH]1)C(C)C` [compound 58] stands less than 1 nM; under `COC(=O)N[C@H](C(=O)N1CCC[C@H]1c1ncc(-c2ccc(-c3ccc4cc(-c5c[nH]c([C@@H]6CCCN6C(=O)[C@@H](NC(=O)OC)C6CCOCC6)n5)cnc4c3)c(F)c2)[nH]1)C(C)C` [compound 59], less than 1 nM; under `COC(=O)N[C@H](C(=O)N1CCC[C@H]1c1ncc(-c2ccc(-c3ccc4cc(-c5c[nH]c([C@@H]6CCCN6C(=O)[C@H](NC(=O)OC)c6ccccc6)n5)cnc4c3)nc2)[nH]1)C(C)C` [compound 60], less than 1 nM.
Under `COC(=O)N[C@H](C(=O)N1CCC[C@H]1c1ncc(-c2ccc(-c3ccc4cc(-c5c[nH]c([C@@H]6CCCN6C(=O)[C@@H](NC(=O)OC)C6CCOCC6)n5)cnc4c3)nc2)[nH]1)C(C)C` [compound 61] stands less than 1 nM.
Under `COC(=O)N[C@H](C(=O)N1CCC[C@H]1c1nc(-c2cnc3cc(-c4ccc(-c5cnc([C@@H]6CCCN6C(=O)[C@@H](NC(=O)OC)C6CCOCC6)[nH]5)cn4)ccc3c2)c[nH]1)C(C)C` [compound 62] stands less than 1 nM.
Consider `COC(=O)N[C@H](C(=O)N1CCC[C@H]1c1nc(-c2ccc3cc(-c4ccc(-c5cnc([C@@H]6CCCN6C(=O)[C@H](NC(=O)OC)c6ccccc6)[nH]5)nc4)ccc3c2)c[nH]1)C(C)C` [compound 63], for which the EC50 was less than 1 nM.
Under `COC(=O)N[C@H](C(=O)N1CCC[C@H]1c1nc(-c2ccc3cc(-c4ccc(-c5cnc([C@@H]6CCCN6C(=O)[C@H](NC(=O)OC)c6ccccc6)[nH]5)cc4F)ccc3c2)c[nH]1)C(C)C` [compound 64] stands less than 1 nM; under `COC(=O)N[C@H](C(=O)N1CCC[C@H]1c1nc(-c2ccc3cc(-c4ccc(-c5cnc([C@@H]6CCCN6C(=O)[C@@H](NC(=O)OC)C6CCOCC6)[nH]5)cc4F)ccc3c2)c[nH]1)C(C)C` [compound 65], less than 1 nM; under `COC(=O)N[C@H](C(=O)N1CCC[C@H]1c1nc(-c2ccc3cc(-c4ccc(-c5cnc([C@@H]6CCCN6C(=O)[C@@H](NC(=O)OC)C(C)C)[nH]5)cc4F)ccc3c2)c[nH]1)C(C)C` [compound 66], less than 1 nM.
With `COC(=O)N[C@H](C(=O)N1CCC[C@H]1c1ncc(-c2ccc(-c3ccc4cc(-c5c[nH]c([C@@H]6CCCN6C(=O)[C@H](NC(=O)OC)c6ccccc6)n5)ccc4c3)c(F)c2)[nH]1)C(C)C` [compound 67], the EC50 was less than 1 nM.
Under `COC(=O)N[C@H](C(=O)N1CCC[C@H]1c1ncc(-c2ccc(-c3ccc4cc(-c5c[nH]c([C@@H]6CCCN6C(=O)[C@@H](NC(=O)OC)C6CCOCC6)n5)ccc4c3)c(F)c2)[nH]1)C(C)C` [compound 68] stands less than 1 nM.
The figure for `COC(=O)N[C@H](C(=O)N1CCC[C@H]1c1nc(-c2ccc3cc(-c4ccc(-c5cnc([C@@H]6CCCN6C(=O)[C@H](NC(=O)OC)c6ccccc6)[nH]5)cc4C)ccc3c2)c[nH]1)C(C)C` [compound 69] is less than 1 nM; for `COC(=O)N[C@H](C(=O)N1CCC[C@H]1c1ncc(-c2ccc(-c3ccc4cc(-c5c[nH]c([C@@H]6CCCN6C(=O)[C@H](NC(=O)OC(C)(C)C)c6ccccc6)n5)ccc4n3)cn2)[nH]1)C(C)C` [compound 70] it is less than 1 nM.
Take `COC(=O)N[C@H](C(=O)N1CCC[C@H]1c1nc(-c2cnc3cc(-c4ccc(-c5cnc([C@@H]6CCCN6C(=O)[C@H](NC(=O)OC)c6ccccc6)[nH]5)cc4)ccc3c2)c[nH]1)C1CCOCC1` [compound 71]: the EC50 is less than 1 nM.
The figure for `COC(=O)N[C@H](C(=O)N1CCC[C@H]1c1nc(-c2cnc3cc(-c4ccc(-c5cnc([C@@H]6CCCN6C(=O)[C@H](NC(=O)OC(C)(C)C)c6ccccc6)[nH]5)cc4)ccc3c2)c[nH]1)C1CCOCC1` [compound 72] is less than 1 nM; for `COC(=O)N[C@H](C(=O)N1CCC[C@H]1c1nc(-c2cnc3cc(-c4ccc(-c5cnc([C@@H]6CCCN6C(=O)[C@@H](NC(=O)OC)C6CCOCC6)[nH]5)cc4)ccc3c2)c[nH]1)C1CCOCC1` [compound 73] it is less than 1 nM; for `COC(=O)N[C@H](C(=O)N1CCC[C@H]1c1nc(-c2cnc3cc(-c4ccc(-c5cnc([C@@H]6CCCN6C(=O)[C@@H](NC(=O)OC)C(C)C)[nH]5)cn4)ccc3c2)c[nH]1)C(C)C` [compound 74] it is less than 1 nM.
Under `COC(=O)N[C@H](C(=O)N1CCC[C@H]1c1nc(-c2cnc3cc(-c4ccc(-c5cnc([C@@H]6CCCN6C(=O)[C@@H](NC(=O)OC)C6CCOCC6)[nH]5)cn4)ccc3c2)c[nH]1)C1CCOCC1` [compound 75] stands less than 1 nM; under `COC(=O)N[C@H](C(=O)N1CCC[C@H]1c1nc(-c2ccc3[nH]c(-c4ccc(-c5cnc([C@@H]6CCCN6C(=O)[C@@H](NC(=O)OC)C(C)C)[nH]5)cc4)cc(=O)c3c2)c[nH]1)C(C)C` [compound 76], less than 1 nM.
For `COC(=O)N[C@@H](C(=O)N1CCC[C@H]1c1nc(-c2ccc3[nH]c(-c4ccc(-c5cnc([C@@H]6CCCN6C(=O)[C@H](NC(=O)OC)c6ccccc6)[nH]5)cc4)cc(=O)c3c2)c[nH]1)c1ccccc1` [compound 77], the EC50 was 10 to 999 nM.
Under `COC(=O)N[C@@H](C(=O)N1CCC[C@H]1c1nc(-c2ccc3nc(-c4ccc(-c5cnc([C@@H]6CCCN6C(=O)[C@H](NC(=O)OC)c6ccccc6)[nH]5)cc4)cc(OC)c3c2)c[nH]1)c1ccccc1` [compound 78] stands less than 1 nM.
The figure for `COC(=O)N[C@H](C(=O)N1CCC[C@H]1c1nc(-c2ccc3nc(-c4ccc(-c5cnc([C@@H]6CCCN6C(=O)[C@@H](NC(=O)OC)C(C)C)[nH]5)cc4)cc(OC)c3c2)c[nH]1)C(C)C` [compound 79] is less than 1 nM; for `COC(=O)N[C@@H](C(=O)N1CCC[C@H]1c1nc(-c2cnc3cc(-c4ccc(-c5cnc([C@@H]6CCCN6C(=O)[C@H](NC(=O)OC)c6ccccc6)[nH]5)cn4)ccc3c2)c[nH]1)c1ccccc1` [compound 80] it is less than 1 nM; for `COC(=O)N[C@H](C(=O)N1CCC[C@H]1c1ncc(-c2ccc(-c3ccc4cc(-c5c[nH]c([C@@H]6CCCN6C(=O)[C@H](NC(=O)OC6CCOCC6)c6ccccc6)n5)cnc4c3)nc2)[nH]1)C(C)C` [compound 81] it is less than 1 nM.
The figure for `COC(=O)N[C@H](C(=O)N1CCC[C@H]1c1ncc(-c2ccc(-c3ccc4cc(-c5c[nH]c([C@@H]6CCCN6C(=O)[C@H](NC(=O)OC(C)(C)C)c6ccccc6)n5)cnc4c3)nc2)[nH]1)C(C)C` [compound 82] is less than 1 nM.
